In ChEMBL document CHEMBL1201862, “PubChem BioAssay data set” (2004):
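Test compounds were applied to cells in 96-well plates for 48 hours at 5 doses. GI50 is the concentration that inhibits growth by half.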 The source made the active and inactive calls. No stated cut-off is given here; in the data, active = GI50 up to about 1.1 µM and inactive = higher.

What was measured:
Assay in all cases: NCI tumour cell line growth inhibition, 48 h
786-0 = system: 786-0
A498 = system: A498
A549 = system: A549
BT-549 = system: BT-549
CAKI-1 = system: CAKI-1
CCRF-CEM = system: CCRF-CEM
COLO 205 = system: COLO 205
DU-145 = system: DU-145
EKVX = system: EKVX
HCC 2998 = system: HCC 2998
HCT-116 = system: HCT-116
HCT-15 = system: HCT-15
HL-60 = system: HL-60
HT-29 = system: HT-29
Hs-578T = system: Hs-578T
IGROV-1 = system: IGROV-1
K562 = system: K562
KM12 = system: KM12
LOX IMVI = system: LOX IMVI
M14 = system: M14
MCF7 = system: MCF7
MDA-MB-231 = system: MDA-MB-231
MDA-MB-435 = system: MDA-MB-435
MDA-N = system: MDA-N
MOLT-4 = system: MOLT-4
Malme-3M = system: Malme-3M
NCI-H226 = system: NCI-H226
NCI-H23 = system: NCI-H23
NCI-H460 = system: NCI-H460
NCI-H522 = system: NCI-H522
NCI/ADR-RES = system: NCI/ADR-RES
OVCAR-3 = system: OVCAR-3
OVCAR-4 = system: OVCAR-4
OVCAR-5 = system: OVCAR-5
OVCAR-8 = system: OVCAR-8
PC-3 = system: PC-3
RPMI-8226 = system: RPMI-8226
RXF 393 = system: RXF 393
SF-268 = system: SF-268
SF-539 = system: SF-539
SK-MEL-28 = system: SK-MEL-28
SK-MEL-2 = system: SK-MEL-2
SK-OV-3 = system: SK-OV-3
SN12C = system: SN12C
SNB-19 = system: SNB-19
SNB-75 = system: SNB-75
SR = system: SR
SW-620 = system: SW-620
T47D = system: T47D
TK-10 = system: TK-10
U-251 = system: U-251
UACC-257 = system: UACC-257
UACC-62 = system: UACC-62
UO-31 = system: UO-31

## CO[C@H]1c2cccc3cccc(c23)[C@@H]1n1[nH]c(=O)n(C(C)(C)C)c1=O
786-0
  GI50: > 100 µM (inactive)
A498
  GI50: > 100 µM (inactive)
A549
  GI50: > 100 µM (inactive)
BT-549
  GI50: > 100 µM (inactive)
CAKI-1
  GI50: > 100 µM (inactive)
CCRF-CEM
  GI50: > 100 µM (inactive)
COLO 205
  GI50: > 100 µM (inactive)
DU-145
  GI50: > 100 µM (inactive)
EKVX
  GI50: > 100 µM (inactive)
HCC 2998
  GI50: > 100 µM (inactive)
HCT-116
  GI50: > 100 µM (inactive)
HCT-15
  GI50: > 100 µM
HL-60
  GI50: > 100 µM (inactive)
HT-29
  GI50: > 100 µM (inactive)
Hs-578T
  GI50: > 100 µM (inactive)
IGROV-1
  GI50: > 100 µM (inactive)
K562
  GI50: > 100 µM (inactive)
KM12
  GI50: > 100 µM (inactive)
LOX IMVI
  GI50: > 100 µM (inactive)
M14
  GI50: > 100 µM (inactive)
MCF7
  GI50: > 100 µM (inactive)
MDA-MB-231
  GI50: > 100 µM (inactive)
MDA-MB-435
  GI50: > 100 µM (inactive)
MDA-N
  GI50: > 100 µM (inactive)
MOLT-4
  GI50: > 100 µM (inactive)
Malme-3M
  GI50: > 100 µM (inactive)
NCI-H226
  GI50: > 100 µM (inactive)
NCI-H23
  GI50: > 100 µM (inactive)
NCI-H460
  GI50: > 100 µM (inactive)
NCI-H522
  GI50: > 100 µM (inactive)
NCI/ADR-RES
  GI50: > 100 µM (inactive)
OVCAR-3
  GI50: > 100 µM (inactive)
OVCAR-4
  GI50: > 100 µM (inactive)
OVCAR-5
  GI50: > 100 µM (inactive)
OVCAR-8
  GI50: > 100 µM (inactive)
PC-3
  GI50: > 100 µM (inactive)
RPMI-8226
  GI50: > 100 µM (inactive)
RXF 393
  GI50: > 100 µM (inactive)
SF-268
  GI50: > 100 µM (inactive)
SF-539
  GI50: > 100 µM (inactive)
SK-MEL-28
  GI50: > 100 µM (inactive)
SK-MEL-2
  GI50: > 100 µM (inactive)
SK-OV-3
  GI50: > 100 µM (inactive)
SN12C
  GI50: > 100 µM (inactive)
SNB-19
  GI50: > 100 µM (inactive)
SNB-75
  GI50: > 100 µM (inactive)
SR
  GI50: > 100 µM (inactive)
SW-620
  GI50: > 100 µM (inactive)
T47D
  GI50: > 100 µM (inactive)
TK-10
  GI50: > 100 µM (inactive)
U-251
  GI50: > 100 µM (inactive)
UACC-257
  GI50: > 100 µM (inactive)
UACC-62
  GI50: > 100 µM (inactive)
UO-31
  GI50: 69.8 µM (inactive)
